The values below are quoted from earlier work in patent publication US10668058B2, “Device and method for delivery of a medicament” (Philip Morris Products S.A., priority 2007, dated 2020).

For this data set the following is noted: 25° C.

As for `CN1CCCC1c1cccnc1` (stereo not shown) [Nicotine only, Nicotine], the vapor pressure is on record as 0.04 mm Hg.
